Measurements reported in patent publication US11957759B1, “Rapidly accelerated fibrosarcoma (RAF) degrading compounds and associated methods of use” (Arvinas Operations, Inc., priority 2022, dated 2024).

Key:
B-RAF V600E = target: T1, B-RAF V600E (Homo sapiens, UniProt P15056, V600E); test: Target protein degradation, assay C: T-Rex 293 cells, HA-BRAF_V600E, 384 well format; format: cell-based; conditions: T-Rex 293 HA-BRAF_V600E cells, 24 hours, Examples 83-269; for DC50: Assay C; for Dmax: T-REx-293, Assay C
T1 construct: expressed in transfected cells; host or cells: T-Rex 293 cells (Invitrogen #R71007)
Method in brief: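 After 24 h exposure to an 11-point 1:3 series (300 nM–5 pM, 0.5% DMSO), fixed T-Rex 293 cells carrying HA-BRAF V600E (induced with 1 ng/mL doxycycline) were stained anti-HA and imaged. DC50 and Dmax were derived from BRAF intensity relative to control, and cytotoxicity from nuclear counts.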

B-RAF G466V = target: T2, B-RAF G466V (Homo sapiens, UniProt P15056, G466V); test: Target protein degradation, assay D: T-Rex 293 cells, HA-BRAF_G466V, 384 well format; format: cell-based; conditions: T-Rex 293 HA-BRAF_G466V cells, 24 hours, Examples 83-269; for DC50: Assay D; for Dmax: T-REx-293, Assay D
T2 construct: expressed in transfected cells; host or cells: T-Rex 293 cells (Invitrogen #R71007)
Method in brief: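 Degradation measured by high-content imaging of anti-HA immunofluorescence in fixed T-Rex 293 cells carrying inducible HA-BRAF G466V (1 ng/mL doxycycline), after 24 h PROTAC exposure at 37 °C over 300 nM–5 pM (1:3, 11 points, 0.5% DMSO). Outputs DC50 and Dmax as % of control; nuclei counts against DMSO wells gauge toxicity.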

T2 sequence (P15056 whole entry G466V): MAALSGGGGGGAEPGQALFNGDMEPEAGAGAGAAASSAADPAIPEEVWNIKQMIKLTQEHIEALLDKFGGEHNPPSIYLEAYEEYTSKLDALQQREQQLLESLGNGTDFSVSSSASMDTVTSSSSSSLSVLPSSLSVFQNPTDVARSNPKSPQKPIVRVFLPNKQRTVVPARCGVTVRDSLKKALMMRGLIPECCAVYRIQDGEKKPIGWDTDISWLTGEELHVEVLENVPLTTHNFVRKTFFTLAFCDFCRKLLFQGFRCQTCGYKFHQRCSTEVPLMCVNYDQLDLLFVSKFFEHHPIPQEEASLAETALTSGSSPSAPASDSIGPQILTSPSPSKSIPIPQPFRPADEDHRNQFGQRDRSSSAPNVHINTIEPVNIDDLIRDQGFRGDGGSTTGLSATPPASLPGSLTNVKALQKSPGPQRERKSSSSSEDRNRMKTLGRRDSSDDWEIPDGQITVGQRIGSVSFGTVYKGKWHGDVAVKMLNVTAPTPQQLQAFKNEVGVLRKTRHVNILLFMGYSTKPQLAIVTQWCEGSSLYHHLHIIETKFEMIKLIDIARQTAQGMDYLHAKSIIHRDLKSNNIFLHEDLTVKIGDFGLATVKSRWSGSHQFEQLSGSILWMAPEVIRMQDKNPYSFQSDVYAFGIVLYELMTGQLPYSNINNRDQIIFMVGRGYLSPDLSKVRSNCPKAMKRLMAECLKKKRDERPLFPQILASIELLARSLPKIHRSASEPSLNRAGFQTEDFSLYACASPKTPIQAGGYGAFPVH
T1 sequence (P15056 whole entry V600E): as the sequence (P15056 whole entry G466V) above, with V466G, V600E counted along it

`N#Cc1c(NS(=O)(=O)N2CC[C@@H](F)C2)ccc(F)c1Oc1ccc2ncn(-c3cccc(N4CCN(CC5CCN(c6ccc7c(c6)CN(C6CCC(=O)NC6=O)C7=O)CC5)CC4)c3)c(=O)c2c1` (stereo partly drawn) [Example 90, (3R)-N-{2-cyano-3-[(3-{3-[4-({1-[2-(2,6-dioxopiperidin-3-yl)-1-oxo-2,3-dihydro-1H-isoindol-5-yl]piperidin-4-yl}methyl)piperazin-1-yl]phenyl}-4-oxo-3,4-dihydroquinazolin-6-yl)oxy]-4-fluorophenyl}-3-fluoropyrrolidine-1-sulfonamide] was tested, and the DC50 (B-RAF V600E) was 50 to 500 nM, the Dmax (B-RAF V600E) was 35 to 70% and the DC50 (B-RAF G466V) was 1 to 10 nM. For the same compound, the Dmax (B-RAF G466V) was 35 to 70%.

In the case of `N#Cc1c(NS(=O)(=O)N2CC[C@@H](F)C2)ccc(F)c1Oc1ccc2ncn(-c3ccc(N4CCC(CN5CC(c6ccc7c(c6)CN([C@H]6CCC(=O)NC6=O)C7=O)C5)CC4)cc3)c(=O)c2c1` [Example 215, (3R)-N-(2-cyano-3-{[3-(4-{4-[(3-{2-[(3S)-2,6-dioxopiperidin-3-yl]-1-oxo-2,3-dihydro-1H-isoindol-5-yl}azetidin-1-yl)methyl]piperidin-1-yl}phenyl)-4-oxo-3,4-dihydroquinazolin-6-yl]oxy}-4-fluorophenyl)-3-fluoropyrrolidine-1-sulfonamide], the DC50 (B-RAF V600E) is reported as 50 to 500 nM, the Dmax (B-RAF V600E) is reported as 35 to 70% and the DC50 (B-RAF G466V) is reported as 1 to 10 nM. It also gave a Dmax (B-RAF G466V) of at most 35%.

Work on `N#Cc1c(NS(=O)(=O)N2CC[C@@H](F)C2)ccc(F)c1Oc1ccc2ncn(-c3ccc(N4CCN(CCN5CCN(c6ccc(C7CCC(=O)NC7=O)cc6F)CC5)CC4)cc3)c(=O)c2c1` (stereo partly drawn) [Example 244, (3R)-N-{2-cyano-3-[(3-(4-[4-(2-{4-[4-(2,6-dioxopiperidin-3-yl)-2-fluorophenyl]piperazin-1-yl}ethyl)piperazin-1-yl]phenyl}-4-oxo-3,4-dihydroquinazolin-6-yl)oxy]-4-fluorophenyl}-3-fluoropyrrolidine-1-sulfonamide] yielded a DC50 (B-RAF V600E) of 50 to 500 nM, a Dmax (B-RAF V600E) of 35 to 70% and a DC50 (B-RAF G466V) of 1 to 10 nM. It also gave a Dmax (B-RAF G466V) of at most 35%.

Compound `N#Cc1c(NS(=O)(=O)N2CC[C@@H](F)C2)ccc(F)c1Oc1ccc2ncn(-c3ccc(N4CCC(CN5CCC6(CC5)CN(c5cccc7c5CN(C5CCC(=O)NC5=O)C7=O)C6)CC4)nc3)c(=O)c2c1` (stereo partly drawn) [Example 169, (3R)-N-{2-cyano-3-[(3-{6-[4-({2-[2-(2,6-dioxopiperidin-3-yl)-1-oxo-2,3-dihydro-1H-isoindol-4-yl]-2,7-diazaspiro[3.5]nonan-7-yl}methyl)piperidin-1-yl]pyridin-3-yl}-4-oxo-3,4-dihydroquinazolin-6-yl)oxy]-4-fluorophenyl}-3-fluoropyrrolidine-1-sulfonamide] has a DC50 (B-RAF V600E) of 50 to 500 nM, a Dmax (B-RAF V600E) of 35 to 70% and a DC50 (B-RAF G466V) of 1 to 10 nM. It also gave a Dmax (B-RAF G466V) of at most 35%.

For `N#Cc1c(NS(=O)(=O)N2CC[C@@H](F)C2)ccc(F)c1Oc1ccc2ncn(-c3ccc(N4CCN(CC5CCN(c6ccc7c(c6F)CN([C@H]6CCC(=O)NC6=O)C7=O)CC5)CC4)cn3)c(=O)c2c1` [Example 114, (3R)-N-(2-cyano-3-{[3-(5-{4-[(1-{2-[(3S)-2,6-dioxopiperidin-3-yl]-4-fluoro-1-oxo-2,3-dihydro-1H-isoindol-5-yl}piperidin-4-yl)methyl]piperazin-1-yl}pyridin-2-yl)-4-oxo-3,4-dihydroquinazolin-6-yl]oxy}-4-fluorophenyl)-3-fluoropyrrolidine-1-sulfonamide], the DC50 (B-RAF V600E) was 50 to 500 nM, the Dmax (B-RAF V600E) was at most 35% and the DC50 (B-RAF G466V) was 1 to 10 nM. It also gave a Dmax (B-RAF G466V) of 35 to 70%.

Compound `N#Cc1c(NS(=O)(=O)N2CC[C@@H](F)C2)ccc(F)c1Oc1ccc2ncn(-c3cnc(N4CCN(CC5CCN(c6ccc7c(c6)CN(C6CCC(=O)NC6=O)C7=O)CC5)CC4)cn3)c(=O)c2c1` (stereo partly drawn) [Example 89, (3R)-N-{2-cyano-3-[(3-(5-[4-({1-[2-(2,6-dioxopiperidin-3-yl)-1-oxo-2,3-dihydro-1H-isoindol-5-yl]piperidin-4-yl}methyl)piperazin-1-yl]pyrazin-2-yl}-4-oxo-3,4-dihydroquinazolin-6-yl)oxy]-4-fluorophenyl}-3-fluoropyrrolidine-1-sulfonamide] has a DC50 (B-RAF V600E) of 5 to 50 nM, a Dmax (B-RAF V600E) of 35 to 70% and a DC50 (B-RAF G466V) of 1 to 10 nM. The Dmax (B-RAF G466V) was at most 35%.

`Cc1c(N2CCC(CN3CCN(c4ccc(-n5cnc6ccc(Oc7c(F)ccc(NS(=O)(=O)N8CC[C@@H](F)C8)c7C#N)cc6c5=O)cc4)CC3)CC2)ccc2c1CN(C1CCC(=O)NC1=O)C2=O` (stereo partly drawn) [Example 104, (3R)-N-{2-cyano-3-[(3-{4-[4-({1-[2-(2,6-dioxopiperidin-3-yl)-4-methyl-1-oxo-2,3-dihydro-1H-isoindol-5-yl]piperidin-4-yl}methyl)piperazin-1-yl]phenyl}-4-oxo-3,4-dihydroquinazolin-6-yl)oxy]-4-fluorophenyl}-3-fluoropyrrolidine-1-sulfonamide] showed a DC50 (B-RAF V600E) of 5 to 50 nM, a Dmax (B-RAF V600E) of 35 to 70% and a DC50 (B-RAF G466V) of 1 to 10 nM. For the same compound, the Dmax (B-RAF G466V) was 35 to 70%.

`N#Cc1c(NS(=O)(=O)N2CC[C@@H](F)C2)ccc(F)c1Oc1ccc2ncn(-c3ccc(N4CCC5(CCN(CC6CCN(c7ccc8c(c7)CN([C@@H]7CCC(=O)NC7=O)C8=O)CC6)CC5)CC4)cc3)c(=O)c2c1` [Example 201, (3R)-N-(2-cyano-3-{[3-(4-{9-[(1-{2-[(3R)-2,6-dioxopiperidin-3-yl]-1-oxo-2,3-dihydro-1H-isoindol-5-yl}piperidin-4-yl)methyl]-3,9-diazaspiro[5.5]undecan-3-yl}phenyl)-4-oxo-3,4-dihydroquinazolin-6-yl]oxy}-4-fluorophenyl)-3-fluoropyrrolidine-1-sulfonamide] gave a DC50 (B-RAF V600E) of 50 to 500 nM, a Dmax (B-RAF V600E) of 35 to 70% and a DC50 (B-RAF G466V) of 1 to 10 nM. The Dmax (B-RAF G466V) was 35 to 70%.

`N#Cc1c(NS(=O)(=O)N2CC[C@@H](F)C2)ccc(F)c1Oc1ccc2ncn(-c3ccc(N4CCC5(CC4)CC(OC4CCN(c6ccc7c(c6)CN([C@@H]6CCC(=O)NC6=O)C7=O)CC4)C5)cc3)c(=O)c2c1` [Example 252, (3R)-N-(2-cyano-3-{[3-(4-{2-[(1-{2-[(3R)-2,6-dioxopiperidin-3-yl]-1-oxo-2,3-dihydro-1H-isoindol-5-yl}piperidin-4-yl)oxy]-7-azaspiro[3.5]nonan-7-yl}phenyl)-4-oxo-3,4-dihydroquinazolin-6-yl]oxy}-4-fluorophenyl)-3-fluoropyrrolidine-1-sulfonamide] was tested, and the DC50 (B-RAF V600E) was 5 to 50 nM, the Dmax (B-RAF V600E) was at most 35% and the DC50 (B-RAF G466V) was 1 to 10 nM. It also gave a Dmax (B-RAF G466V) of 35 to 70%.

`N#Cc1c(NS(=O)(=O)N2CC[C@@H](F)C2)ccc(F)c1Oc1ccc2ncn(-c3ccc(N4CCC5(CC4)CN(c4cccc6c4CN(C4CCC(=O)NC4=O)C6=O)C5)nc3)c(=O)c2c1` (stereo partly drawn) [Example 165, (3R)-N-(2-cyano-3-{[3-(6-{2-[2-(2,6-dioxopiperidin-3-yl)-1-oxo-2,3-dihydro-1H-isoindol-4-yl]-2,7-diazaspiro[3.5]nonan-7-yl}pyridin-3-yl)-4-oxo-3,4-dihydroquinazolin-6-yl]oxy}-4-fluorophenyl)-3-fluoropyrrolidine-1-sulfonamide] was tested, and the DC50 (B-RAF V600E) was at most 5 nM, the Dmax (B-RAF V600E) was at most 35% and the DC50 (B-RAF G466V) was over 30 nM. For the same compound, the Dmax (B-RAF G466V) was at most 35%.

`N#Cc1c(NS(=O)(=O)N2CC[C@@H](F)C2)ccc(F)c1Oc1ccc2ncn(-c3ccc(N4CC(CN5CCC(c6ccc7c(c6)CN([C@H]6CCC(=O)NC6=O)C7=O)CC5)C4)cc3)c(=O)c2c1` [Example 189, (3R)-N-(2-cyano-3-{[3-(4-{3-[(4-{2-[(3S)-2,6-dioxopiperidin-3-yl]-1-oxo-2,3-dihydro-1H-isoindol-5-yl}piperidin-1-yl)methyl]azetidin-1-yl}phenyl)-4-oxo-3,4-dihydroquinazolin-6-yl]oxy}-4-fluorophenyl)-3-fluoropyrrolidine-1-sulfonamide] gave a DC50 (B-RAF V600E) of 50 to 500 nM, a Dmax (B-RAF V600E) of 35 to 70% and a DC50 (B-RAF G466V) of 1 to 10 nM. It also gave a Dmax (B-RAF G466V) of 35 to 70%.

`N#Cc1c(NS(=O)(=O)N2CC[C@@H](F)C2)ccc(F)c1Oc1ccc2ncn(-c3ccc(N4CCN(CC5CCN(c6ccc7c(c6)CN(C6CCC(=O)NC6=O)C7=O)CC5)CC4)cn3)c(=O)c2c1` (stereo partly drawn) [Example 83, (3R)-N-{2-cyano-3-[(3-{5-[4-({1-[2-(2,6-dioxopiperidin-3-yl)-1-oxo-2,3-dihydro-1H-isoindol-5-yl]piperidin-4-yl}methyl)piperazin-1-yl]pyridin-2-yl}-4-oxo-3,4-dihydroquinazolin-6-yl)oxy]-4-fluorophenyl}-3-fluoropyrrolidine-1-sulfonamide] showed a DC50 (B-RAF V600E) of 50 to 500 nM, a Dmax (B-RAF V600E) of 35 to 70% and a DC50 (B-RAF G466V) of at most 1 nM. The Dmax (B-RAF G466V) was at most 35%.

With `N#Cc1c(NS(=O)(=O)N2CC[C@@H](F)C2)ccc(F)c1Oc1ccc2ncn(-c3ccc(N4CCN(c5ccc6c(c5)CN(C5CCC(=O)NC5=O)C6=O)CC4)nc3)c(=O)c2c1` (stereo partly shown) [Example 143] the DC50 (B-RAF V600E) was at most 5 nM, the Dmax (B-RAF V600E) was 35 to 70% and the DC50 (B-RAF G466V) was over 30 nM.

Work on `N#Cc1c(NS(=O)(=O)N2CC[C@@H](F)C2)ccc(F)c1Oc1ccc2ncn(-c3ccc(N4CCN(CC5CCN(c6ccc(N7CCC(=O)NC7=O)c(F)c6)CC5)CC4)nc3)c(=O)c2c1` [Example 142, (3R)-N-{2-cyano-3-[(3-{6-[4-({1-[4-(2,4-dioxo-1,3-diazinan-1-yl)-3-fluorophenyl]piperidin-4-yl}methyl)piperazin-1-yl]pyridin-3-yl}-4-oxo-3,4-dihydroquinazolin-6-yl)oxy]-4-fluorophenyl}-3-fluoropyrrolidine-1-sulfonamide] yielded a DC50 (B-RAF V600E) of 5 to 50 nM, a Dmax (B-RAF V600E) of 35 to 70% and a DC50 (B-RAF G466V) of at most 1 nM. It also gave a Dmax (B-RAF G466V) of at most 35%.
